Results from paper PMC11206988, “Study on the Effect of Pharmaceutical Excipient PEG400 on the Pharmacokinetics of Baicalin in Cells Based on MRP2, MRP3, and BCRP Efflux Transporters” (Pharmaceutics, 2024).

What was measured:
HepG2 cells = assay: Pharmacokinetic study of baicalin in HepG2 cells (intracellular concentrations by UPLC-MS/MS); assay type: in vitro ADME, human; details: HepG2 cells
Description: (§1) The samples were quantified by UPLC-MS/MS, which consisted of a Dionex Ultimate 3000 UPLC system (Thermo Fisher Scientific, Waltham, MA, USA) and a triple quadrupole tandem mass spectrometer (Thermo Fisher Scientific, Waltham, MA, USA). The mass spectrometry was performed using an ESI ion source and in positive ion mode. The chromatograms are shown in Figure S1 of the Supplementary Materials. The samples were analyzed by a Waters XBridge BEH C18 column (2.1 × 100 mm). Mobile phase A consists of acetonitrile, while mobile phase B consists of water containing 0.1% formic acid. The elution program was as follows: B was initially 90%, 0 to 9 min B decreased from 90% to 27%, and 9.1 min to 12 min increased from 27% to 90% B. The flow rate of the mobile phase was 0.3 mL/min, the temperature of the automatic injector was 5 °C, and the injection volume was 10 μL. The m/z for BG and B6G was 447 → 271, for baicalein m/z 271 → 123, and for genistein (IS) m/z 271 → 153. Other mass spectrometry parameters included sheath gas (Arb) pressure, 20 psi, and auxiliary gas (Arb) pressure, 2 psi; source voltage, 4.8 KV, and capillary voltage, 2.5 KV; and ion-transfer-tube temperature, 375 °C, and atomization temperature, 275 °C.
(§2) HepG2 cells were cultured at a density of 1×10^5 cells/mL in 12-well plates for 24 h to facilitate the conduct of cellular pharmacokinetic experiments. The old medium was aspirated and discarded, the wells were rinsed twice with PBS, and 1 mL of 100 μM baicalin and baicalin + PEG400 (0.25%, 0.5%, and 1%) was added into 12-well plates to initiate the timer. The culture was terminated after 0.25 h, 0.5 h, 1 h, 2 h, 4 h, 6 h, 8 h, 10 h, 12 h, and 24 h, respectively. Upon reaching the designated time for administration, the cell culture medium was removed, and the wells were washed with 1 mL of cold PBS solution. Subsequently, 240 μL of ultra-pure water were added to each well, and the sample was stored at −80 °C until analysis. The sample was subjected to sonication in an ice bath for 10 min in order to lyse the cells, thereby enabling the determination of the accumulated drug concentration within the cells. Subsequently, 20 μL of the cell lysate was collected, and the protein concentration was quantified using a BCA kit for normalization.
(§3) After repeated freeze-thaw lysis, 100 μL of cell samples were taken, and 300 μL of 0.2% formic acid acetonitrile (containing 200 ng/mL genistein) were added to the vortex for 10 min to precipitate proteins and then centrifuged at 14,000 r/min for 10 min. Then the supernatant was blown dry under nitrogen at 40 °C and then reconstituted with 200 μL of methanol and centrifuged at 14,000 rpm for 10 min. The supernatant was subjected to UPLC-MS/MS analysis.

[1] = as above; assay type: in vitro ADME, human; details: human, intracellular; for AUC(0-t) at 100 μM / Cmax at 100 μM / half-life at 100 μM: HepG2 cells
Description: as §1, §2, §3

[2] = tested on: MDCK II-WT, MDCK II-MRP2, MDCK II-BCRP and MDCK II-MRP3 cells; assay: MTT cell proliferation assay; assay type: cell-based; details: experimentally selected concentrations
Description: The effect of PEG400 on baicalin transport was investigated in MDCKII-WT, MDCKII-MRP2, MDCK II-BCRP, and MDCK II-MRP3 cell monolayer models. First, an MTT cell proliferation assay was used to evaluate the effects of baicalin as well as PEG400 concentration on […]. […] The results of the transporter experiments are shown in Figure 5 and Table 2, which indicate that the exocytosis ratio of MDCKII-WT cells in the control group for the transport of the substrate baicalin was 2.58 ± 0.27. This implies that the transport of baicalin through the cell membrane is mediated by a transporter. For the MDCK-WT cell model, the exocytosis ratios of baicalin decreased to 1.94 ± 0.27, 1.53 ± 0.14, and 1.19 ± 0.12, respectively, in response to low, medium, and high concentrations of PEG400. […] Consistent results were obtained in the MDCK II-MRP2 and MDCK II-BCRP cell models, where the percentage of baicalin efflux was reduced, from 2.45 ± 0.04 and 3.01 ± 0.05 to 2.22 ± 0.17, 1.08 ± 0.09, and 0.8 ± 0.04, respectively, and 1.59 ± 0.06, 1.02 ± 0.04, and 0.8 ± 0.02 in a concentration-dependent decrease. The results of the efflux ratio of baicalin in MDCK-WT, MDCK-MRP2, and MDCK-BCRP cell monolayers by 0.25%, 0.5%, and 1% PEG400 are shown in Figure 5f.
Figure 4 The effect diagram of cell vitality. (a,b) The effects of different concentrations of baicalin and PEG400 on the survival of MDCK II-WT cells. […]

[3] = HepG2 cells given 100 μM baicalin + H PEG400 (1%)
[4] = HepG2 cells given 100 μM baicalin + L PEG400 (0.25%)
[5] = HepG2 cells given 100 μM baicalin + M PEG400 (0.5%)
[6] = HepG2 cells given 100 μM baicalin alone (group BG, control)

O=C(O)[C@H]1O[C@@H](Oc2cc3oc(-c4ccccc4)cc(=O)c3c(O)c2O)[C@H](O)[C@@H](O)[C@@H]1O [BG, Baicalein-7-O-β-D-glucuronide]
AUC0–t increase compared with the control group (HepG2 cells; baicalin + high PEG400 (1%) vs baicalin alone): 1.72 fold | AUC0–t increase compared with the control group (HepG2 cells; baicalin + low PEG400 (0.25%) vs baicalin alone): 1.41 fold | AUC0–t increase compared with the control group (HepG2 cells; baicalin + medium PEG400 (0.5%) vs baicalin alone): 1.48 fold | AUC(0-t) at 100 μM [1, 3]: 130 ± 5.26 µg·h/mL | Cmax at 100 μM [1, 3]: 10800 ± 350 ng/mL | half-life at 100 μM [1, 3]: 5.43 ± 0.91 h | AUC(0-t) at 100 μM [1, 4]: 107 ± 2.22 µg·h/mL | Cmax at 100 μM [1, 4]: 10200 ± 1480 ng/mL | half-life at 100 μM [1, 4]: 9.91 ± 3.76 h | AUC(0-t) at 100 μM [1, 5]: 112 ± 3.99 µg·h/mL | Cmax at 100 μM [1, 5]: 11200 ± 1500 ng/mL | half-life at 100 μM [1, 5]: 6.02 ± 4.23 h | Cmax at 100 μM [1, 6]: 7840 ± 110 ng/mL | half-life at 100 μM [1, 6]: 6.77 ± 5.92 h | AUC(0-t) at 100 μM ([1]; HepG2 cells given 100 μM baicalin alone (group BG, control), 0.25-24 h): 76 ± 2.57 µg·h/mL | Tmax at 100 μM [1, 6]: 6 h | effect on cell proliferation (MTT) [2]: no significant effect on the proliferation
